Type in all cases: cell-based
The subject of assay [1] is sonic hedgehog pathway. Description: Human hedgehog reporter assay HEPM-GliLuc (HGL). As to conditions: HepM human embryonic palatal mesenchymal cells, Gli-luciferase reporter. An excerpt: Mouse (TM3: mouse Leydig cells; S12: mouse embryonic mesenchymal cells) and human (Daoy: human medulloblastoma cell; HepM: human embryonic palatal mesenchymal cell) cell lines are used to screen small molecules for their ability to modulate the activity of the sonic hedgehog pathway (Table 1, Table 2, and Table 3). Stable hedgehog pathway reporter cell lines are established by specific antibiotic selection following transfection of a reporter plasmid containing a luciferase gene located directly downstream from the gli promoter. Consequently, any observable changes in cellular luciferase activity may be attributed to changes in sonic hedgehog pathway activity in mouse and human cells, respectively, since gli is the major by-product of this pathway. To calculate activity, we generate an eleven point dose curve for each compound using 1:3 dilutions in 96 well assay plates. Each plate tested also contains low and high control to establish maximal pathway activation so to establish/compare a percentage activation of each tested compound (AMAX) on respective plates. Also we calculate EC50 values, or a concentration where the pathway will be exactly 50% activated, for each tested compound to determine potency. In these cell lines, compounds that register >20% AMAX values are considered active.
Stable hedgehog pathway reporter cell lines are established following specific antibiotic selection following transfection of a reporter plasmid In short, typically cells are plated in MicroTiter-plates at 10,000-20,000 cells per well, in growth media (containing 10%-20% FBS). After 48-72 hrs (HGL and DGL respectively) the media in the assay plates is switched to low-serum containing media (0.5% FBS). At that time compounds are added (at 1-5 μM) to the assay plates, in the presence or absence of hedgehog protein (octyl-modified version; 1-5 ng/ml). After another 24 hrs of incubation, the media from the assay plates is discarded and replaced with luciferase assay-mix. Subsequently, plates are incubated at RT for ˜15-30 mins and then read in a luminometer. [note: addition of the Hedgehog protein, although not critical, will sensitize the assay allowing the identification of weak actives].

The test system of assay [2] is sonic hedgehog pathway. As to the kind of experiment: Human hedgehog reporter assay Daoy-GliLuc (DGL). As to conditions: Daoy human medulloblastoma cells, Gli-luciferase reporter; read-out: Daoy Avg. EC50. In short, it runs like this: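 Luminescence read-out of gli-promoter luciferase in stably transfected cells; 11-point 1:3 dose curves, 24 h compound exposure in 0.5% FBS, ± octyl-modified Hh protein 1–5 ng/ml. AMAX as % of plate low/high controls; EC50 from curve; >20% AMAX counted active.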

Assay [3] deals with sonic hedgehog pathway. Description: Hedgehog pathway Gli-luciferase reporter assay, TM3 cells. As to conditions: TM3 mouse Leydig cells. The gist of the method: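 Reporter cells stably selected after gli-luciferase plasmid transfection; test article dosed over 11 points (1:3). Read as luminescence after 24 h treatment in 0.5% serum; activity >20% AMAX versus plate controls deemed active.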

pEC50: −log10 of the molar value. Counter-ions that a name gives are not always drawn.

For `CNC(=O)c1cc(-c2ccc(OC)c(CN(C(=O)c3sc4c(F)ccc(F)c4c3Cl)[C@H]3CC[C@H](NC)CC3)c2)ccn1` [356 (R21), 4-(3-{[(3-Chloro-4,7-difluoro-benzo[b]thiophene-2-carbonyl)-(4-methylamino-cyclohexyl)-amino]-methyl}-4-methoxy-phenyl)-pyridine-2-carboxylic acid methylamide dihydrochloride], the pEC50 in the assay on sonic hedgehog pathway [1], in the assay with sonic hedgehog pathway [2] and with sonic hedgehog pathway [3] was more than 7.30 in each case.
Regarding `CN[C@H]1CC[C@@H](N(Cc2cc(-c3ccc(C#N)cc3)ccc2OC)C(=O)c2sc3ccccc3c2Cl)CC1` [Compound 301, 3-Chloro-benzo[b]thiophene-2-carboxylic acid (4′-cyano-4-methoxy-biphenyl-3-ylmethyl)-(4-methylamino-cyclohexyl)-amide hydrochloride], the results for the pEC50 in the assay with sonic hedgehog pathway [1], in the assay on sonic hedgehog pathway [2] and in the assay with sonic hedgehog pathway [3] were 6.60 to 7.30, more than 7.30 and more than 7.30, respectively.
On to `CN[C@H]1CC[C@@H](N(Cc2cc(-c3ccc(C(=O)C(F)(F)F)cc3)ccc2OC)C(=O)c2sc3ccccc3c2Cl)CC1` [Compound 302, 3-Chloro-benzo[b]thiophene-2-carboxylic acid [4-methoxy-4′-(2,2,2-trifluoro-acetyl)-biphenyl-3-ylmethyl]-(4-methylamino-cyclohexyl)-amide trifluoroacetate], for which the pEC50 with sonic hedgehog pathway [1], with sonic hedgehog pathway [2] and with sonic hedgehog pathway [3] was more than 7.30 in each case.
For the compound `CN[C@H]1CC[C@@H](N(Cc2cc(-c3cccc(C#N)c3)ccc2OC)C(=O)c2sc3ccccc3c2Cl)CC1` [Compound 304, 3-Chloro-benzo[b]thiophene-2-carboxylic acid (3′-cyano-4-methoxy-biphenyl-3-ylmethyl)-(4-methylamino-cyclohexyl)-amide hydrochloride], the pEC50 with sonic hedgehog pathway [1], in the assay on sonic hedgehog pathway [2] and in the assay with sonic hedgehog pathway [3] was more than 7.30 in each case.
Take `CN[C@H]1CC[C@@H](N(Cc2cc(-c3ccc(OC)cc3)ccc2OC)C(=O)c2sc3ccccc3c2Cl)CC1` [Compound 305, 3-Chloro-benzo[b]thiophene-2-carboxylic acid (4,4′-dimethoxy-biphenyl-3-ylmethyl)-(4-methylamino-cyclohexyl)-amide hydrochloride]: the pEC50 is 6.00 to 6.60 in the assay with sonic hedgehog pathway [1], more than 7.30 in the assay on sonic hedgehog pathway [2] and more than 7.30 in the assay with sonic hedgehog pathway [3].
Regarding `CCOc1ccc(-c2ccc(C(=O)C(F)(F)F)cc2)cc1CN(C(=O)c1sc2ccccc2c1Cl)[C@H]1CC[C@@H](NC)CC1` [Compound 310, 3-Chloro-benzo[b]thiophene-2-carboxylic acid [4-ethoxy-4′-(2,2,2-trifluoro-acetyl)-biphenyl-3-ylmethyl]-(4-methylamino-cyclohexyl)-amide hydrochloride], the pEC50 in the assay on sonic hedgehog pathway [1], with sonic hedgehog pathway [2] and in the assay with sonic hedgehog pathway [3] was more than 7.30 each time.
Turning to `CCOc1ccc(-c2ccc(C(C)=O)cc2)cc1CN(C(=O)c1sc2ccccc2c1Cl)[C@H]1CC[C@@H](NC)CC1` [Compound 311, 3-Chloro-benzo[b]thiophene-2-carboxylic acid (4′-acetyl-4-ethoxy-biphenyl-3-ylmethyl)-(4-methylamino-cyclohexyl)-amide hydrochloride], the pEC50 in the assay on sonic hedgehog pathway [1] was 6.60 to 7.30; in the assay with sonic hedgehog pathway [2], more than 7.30; in the assay on sonic hedgehog pathway [3] it was more than 7.30.
Regarding `CN[C@H]1CC[C@@H](N(Cc2cc(-c3ccc(N(C)C=O)cc3)ccc2OC)C(=O)c2sc3ccccc3c2Cl)CC1` [Compound 315, 3-Chloro-benzo[b]thiophene-2-carboxylic acid [4′-(formyl-methyl-amino)-4-methoxy-biphenyl-3-ylmethyl]-(4-methylamino-cyclohexyl)-amide trifluoroacetate], the figures for the pEC50 in the assay on sonic hedgehog pathway [1], with sonic hedgehog pathway [2] and with sonic hedgehog pathway [3] were 6.00 to 6.60, 6.60 to 7.30 and more than 7.30, respectively.
In the case of `CN[C@H]1CC[C@@H](N(Cc2cc(-c3ccc(N(C)C(C)=O)cc3)ccc2OC)C(=O)c2sc3ccccc3c2Cl)CC1` [Compound 318, 3-Chloro-benzo[b]thiophene-2-carboxylic acid [4′-(acetyl-methyl-amino)-4-methoxy-biphenyl-3-ylmethyl]-(4-methylamino-cyclohexyl)-amide hydrochloride], the pEC50 with sonic hedgehog pathway [1], with sonic hedgehog pathway [2] and with sonic hedgehog pathway [3] was more than 7.30 in each case.
As to `CCOc1ccc(-c2cnc(N)nc2)cc1CN(C(=O)c1sc2ccccc2c1Cl)[C@H]1CC[C@@H](NC)CC1` [Compound 325, 3-Chloro-benzo[b]thiophene-2-carboxylic acid [5-(2-amino-pyrimidin-5-yl)-2-ethoxy-benzyl]-(4-methylamino-cyclohexyl)-amide dihydrochloride], the results for the pEC50 with sonic hedgehog pathway [1], in the assay with sonic hedgehog pathway [2] and in the assay with sonic hedgehog pathway [3] were 6.60 to 7.30, more than 7.30 and 6.00 to 6.60, respectively.
`CCOc1ccc(-c2cncnc2)cc1CN(C(=O)c1sc2ccccc2c1Cl)[C@H]1CC[C@@H](NC)CC1` [Compound 326, 3-Chloro-benzo[b]thiophene-2-carboxylic acid (2-ethoxy-5-pyrimidin-5-yl-benzyl)-(4-methylamino-cyclohexyl)-amide dihydrochloride]: the pEC50 in the assay on sonic hedgehog pathway [1] is 6.60 to 7.30; in the assay on sonic hedgehog pathway [2], more than 7.30; in the assay with sonic hedgehog pathway [3] it was 6.60 to 7.30.
With `CCOc1ccc(-c2cccc(C#N)c2)cc1CN(C(=O)c1sc2ccccc2c1Cl)[C@H]1CC[C@@H](NC)CC1` [Compound 328, 3-Chloro-benzo[b]thiophene-2-carboxylic acid (3′-cyano-4-ethoxy-biphenyl-3-ylmethyl)-(4-methylamino-cyclohexyl)-amide hydrochloride], the pEC50 in the assay with sonic hedgehog pathway [1] is 6.60 to 7.30; with sonic hedgehog pathway [2], more than 7.30; in the assay with sonic hedgehog pathway [3], more than 7.30.
As to `CN[C@H]1CC[C@@H](N(Cc2cc(-c3ccc(CCl)cc3)ccc2OC)C(=O)c2sc3ccccc3c2Cl)CC1` [Compound 340, 3-Chloro-benzo[b]thiophene-2-carboxylic acid (4′-chloromethyl-4-methoxy-biphenyl-3-ylmethyl)-(4-methylamino-cyclohexyl)-amide hydrochloride], the pEC50 in the assay with sonic hedgehog pathway [1], in the assay on sonic hedgehog pathway [2] and in the assay with sonic hedgehog pathway [3] was more than 7.30 each time.
Turning to `CN[C@H]1CC[C@@H](N(Cc2cc(-c3ccnc(C)c3)ccc2OC)C(=O)c2sc3c(F)ccc(F)c3c2Cl)CC1` [Compound 345, 3-Chloro-4,7-difluoro-benzo[b]thiophene-2-carboxylic acid [2-methoxy-5-(2-methyl-pyridin-4-yl)-benzyl]-(4-methylamino-cyclohexyl)-amide dihydrochloride], the pEC50 with sonic hedgehog pathway [1], in the assay on sonic hedgehog pathway [2] and in the assay with sonic hedgehog pathway [3] was more than 7.30 in each case.
For `CN[C@H]1CC[C@@H](N(Cc2cc(-c3ccc(N(C)C=O)cc3)ccc2OC)C(=O)c2sc3cccc(F)c3c2Cl)CC1` [Compound 347, 3-Chloro-4-fluoro-benzo[b]thiophene-2-carboxylic acid [4′-(formyl-methyl-amino)-4-methoxy-biphenyl-3-ylmethyl]-(4-methylamino-cyclohexyl)-amide trifluoroacetate], the pEC50 in the assay on sonic hedgehog pathway [1], in the assay with sonic hedgehog pathway [2] and in the assay on sonic hedgehog pathway [3] was more than 7.30 each time.

Values taken from US20080182859A1 (Curis, Inc., priority 2006, published 2008).
